Structures can show the parent of a compound that is named as a salt. Where two headings read alike, the source gives them in different places. Marks after values point to notes of the source that are not given here.
Assays:
[1] = test system: herpes virus; type: cell-based; conditions: in vitro
[2] = test system: BVDV—bovine viral diarrhea virus; type: cell-based; conditions: in vitro
[3] = test system: influenza virus; experiment: In vitro reproduction of influenza virus; type: cell-based
[4] = test system: rats with LPS-induced Parkinson's disease; experiment: LPS-induced Parkinson's disease in rats; type: in vivo
From the text: Effects of ^64Zn-KLS-1 on Local and Systemic Immune Reactivity, Behavioural and Motor Functions in Rats with LPS-Induced Experimental Parkinsonism

[5] = test system: Epstein-Barr virus; experiment: Cytotoxicity and antiviral activity against Epstein-Barr virus
[6] = test system: MMP-2; experiment: Activities of latent and active forms of metalloproteinase 2 in MM-4 cells
[7] = test system: P. aeruginosa ATCC 27853; experiment: MIC (bacteriostatic activity), P. aeruginosa; type: cell-based; conditions: for MIC: Table 5
From the text: (§1) The conditions of the experiment were like those for Zn-64 compound.

[8] = test system: S. aureus ATCC 25923; experiment: Minimum bactericidal concentration (MBC), S. aureus; type: cell-based
Experimental: (§2) To evaluate the bactericidal action of the antibacterial composition based on light isotope ^64Zne the minimum bactericidal concentration (MBC) was determined by plating out 0.1 ml of the contents of each tube containing the antibacterial composition on Mueller-Hinton medium. The incubation was at 37° C. for 24 h.
(§3) The MBC of the test samples was determined as the lowest concentration at which there was no growth on Mueller-Hinton agar medium.
as §1

[9] = test system: animals on a high-fat diet (DIO); experiment: Diet induced obesity model (animals on a high-fat diet); type: in vivo, rats
From the text: The preclinical study of the effects of Zn-64 Asp on key pathogenetic links in the development and progression of obesity in diet-induced obesity models provides strong ground for efficient use of Zn-64 Asp as therapeutic agent in the treatment of overweight and obese patients.

[10] = test system: pro-inflammatory (IL-1, IL-6, IL-12, IFN-γ) and anti-inflammatory (IL-4, IL-10, TGF) cytokines; conditions: adipose tissue, M ± m, n = 10
From the text: Given the above, the next phase was to find out whether the administration of Zn-64 stable isotope in aspartate form influences the cytokine profile in obese animals.

[11] = test system: MMP-9; experiment: Activities of latent and active forms of metalloproteinase 9 in MM-4 cells; conditions: 16.69 μg/ml
[12] = test system: P. aeruginosa ATCC 27853; experiment: Minimum bactericidal concentration (MBC), P. aeruginosa; type: cell-based
Experimental: as §2, §3, §1

[13] = test system: pro-inflammatory (IL-1, IL-6, IL-12, IFN-γ) and anti-inflammatory (IL-4, IL-10, TGF) cytokines; experiment: Cytokine profile in the serum of experimental animals; type: in vivo, rats; conditions: M ± m, n = 10
From the text: As mentioned above, the pathogenesis of obesity is accompanied by a systemic chronic inflammatory process, the intensity of which can be assessed by the serum levels of pro- and anti-inflammatory cytokines.

[14] = test system: type 1 diabetes; experiment: Development of type 1 diabetes in vivo
[15] = test system: E. coli ATCC 25922; experiment: Minimum bactericidal concentration (MBC), E. coli; type: cell-based
Experimental: as §2, §3, §1

[16] = test system: MM-4 cells; experiment: Immunocytochemistry of Bcl-2, Bax and p53 expression in MM-4 cells; type: cell-based, mouse
[17] = Glucose and pancreatic islets in vivo, model not given (section on obesity and type 1 & 2 diabetes)
[18] = test system: MM-4 mouse melanoma cells; experiment: In vitro analysis of viability of MM-4 mouse melanoma cells; type: cell-based
From the text: A second study was done on mouse model of lymphocytic leukemia, strain of L1210 leukemia cells, mouse melanoma model (MM-4 cell line derived from mouse melanoma cells of strain B16). Typical results are below.

[19] = test system: rat models of Aβ1-40-induced AD; experiment: Rat model of Alzheimer's disease induced by infusion of Aβ 1-40; type: in vivo, rats
From the text: The Effect of ^64Zn-Asp on Cognitive Symptomatology in Rats with Different Models of Alzheimer's Disease Induced by Infusion of a Mix of Beta-Amyloid Peptides

[20] = test system: S. aureus ATCC 25923; experiment: MIC (bacteriostatic activity), S. aureus; type: cell-based; conditions: Table 5
From the text: as §1

[21] = test system: E. coli ATCC 25922; experiment: MIC (bacteriostatic activity), E. coli; type: cell-based; conditions: Table 5
From the text: as §1

[22] = test system: Epstein-Barr virus
[23] = test system: RNA and DNA synthesis; experiment: Inhibition of RNA and DNA synthesis; type: cell-based
[24] = LPS-induced Parkinson's disease
[25] = animals with AD, therapeutic administration

## N[C@@H](CCC(=O)[O-])C(=O)[O-].[Zn+2] [Zinc glutamate, reference compound]
[1]
  reproduction of herpes virus: effectively inhibited
[2]
  reproduction of surrogate model of HCV (BVDV) virus: effectively inhibited
[3]
  reproduction of influenza virus: effectively inhibited

## NC(CCC(=O)[O-])C(=O)[O-].[64Zn+2] (stereo not drawn) [zinc-64 light isotope glutamate]
[1]
  reproduction of herpes virus: effectively inhibited
[2]
  reproduction of surrogate model of HCV (BVDV) virus: effectively inhibited
[3]
  reproduction of influenza virus: effectively inhibited

## NC(CC(=O)[O-])C(=O)[O-].[64Zn+2] (stereo not drawn) [Zn64 Aspartate, ^64Zne aspartate]
[4]; [24]
  dopaminergic neuron loss: Prevention
  harmful side effects: absence
  local and systemic inflammation: Inhibition
  metabolic activity of microglia: increase
[4]; LPS-induced Parkinson's disease, rats
  number of dopaminergic neurons in the substantia nigra: virtually full restoration
[4]; therapeutic administration, LPS-induced parkinsonism
  systemic inflammatory responses: reduces
[5]
  assessment of cytotoxicity and antiviral activity for anti-EBV infection: most promising
[6]; 16.69 μg/ml
  decrease in the activity of active MMP-2 compared with the control: 66.8%
  decrease in the activity of latent pro-MMP-2 compared with the control: 76.5%
[6]; 25.03 μg/ml
  suppression of the activity of MMP-2 compared with the control: 76%
[7]
  bacteriostatic activity (in words): best results
[8]; 37° C. 24 h, Table 4
  MBC: 0.023* mcg ^64Zne/ml
[9]; DIO group
  fatty degeneration (exocrine part of the pancreas): Disappearance
[9]; animal models of obesity
  divalent metal ions (zinc, copper, manganese) in muscles, kidneys and liver: restoration of their normal physiological levels
[9]; animals on a high fat diet
  activity of antioxidant enzymes (superoxide dismutase and catalase): increased activity
  levels of lipid peroxidation products and protein oxidative modification: decrease
[9]; animals on a high-fat diet
  central and peripheral serotonin levels compared to untreated animal models of obesity: restoration
  decrease of the area of hepatocytes compared to the group with obesity: 41%
  increase of the cross-sectional surface area of the islets of Langerhans compared with the obesity group: 43%
  lipid metabolism: Improvement
  serotonin levels in the brain: An increase
  weight and the amount of food consumed compared to the untreated animals: Reduction
[10]; control animals (C)
  IFN-γ level: 5.0 ± 0.8^ RU/mg protein
  IL-1 level: 4.9 ± 1.7^ RU/mg protein
  IL-4 level: 5.0 ± 0.4^ RU/mg protein
  IL-6 level: 5.4 ± 0.3^ RU/mg protein
  IL-10 level: 4.9 ± 0.2^ RU/mg protein
  IL-12 level: 1.0 ± 0.03 RU/mg protein
  TGF level: 5.1 ± 0.6^ RU/mg protein
[10]; diet induced obesity (DIO)
  IFN-γ level: 4.9 ± 0.8 RU/mg protein
  IL-1 level: 5.8 ± 1.8 RU/mg protein
  IL-4 level: 5.1 ± 1.2 RU/mg protein
  IL-6 level: 6.1 ± 0.7 RU/mg protein
  IL-10 level: 5.8 ± 0.8 RU/mg protein
  IL-12 level: 1.99 ± 0.01 RU/mg protein
  TGF level: 5.2 ± 0.9 RU/mg protein
[11]
  decrease in the activity of active MMP-9 compared with the control: 23.8%
  decrease in the activity of latent pro-MMP-9 compared with the control: 61.2%
[12]; 37° C. 24 h, Table 4
  MBC: >750 mcg ^64Zne/ml
[13]; control animals (C)
  IFN-γ level: 4.6 ± 0.6 RU/mg protein
  IL-1 level: 3.5 ± 0.7 RU/mg protein
  IL-4 level: 4.6 ± 0.8 RU/mg protein
  IL-6 level: 4.3 ± 0.2^ RU/mg protein
  IL-10 level: 4.1 ± 0.5 RU/mg protein
  IL-12 level: 0.3 ± 0.04 RU/mg protein
  TGF level: 4.1 ± 0.4 RU/mg protein
[13]; diet induced obesity (DIO)
  IFN-γ level: 4.1 ± 1.2 RU/mg protein
  IL-1 level: 4.2 ± 0.4 RU/mg protein
  IL-4 level: 5.6 ± 1.6 RU/mg protein
  IL-6 level: 5.1 ± 0.4 RU/mg protein
  IL-10 level: 6.8 ± 1.1 # RU/mg protein
  IL-12 level: 2.4 ± 0.06 # RU/mg protein
  TGF level: 5.7 ± 0.3 # RU/mg protein
[14]
  decrease of glucose concentration: 26%
  decrease of glycosylated hemoglobin: 30%
  increase of serum insulin content: 13%
[15]; 37° C. 24 h, Table 4
  MBC: 0.73* mcg ^64Zne/ml
[16]; 16.69 μg/ml
  decrease in the expression of Bcl-2 vs. control: 69.5%
  expression of pro-apoptotic proteins Bax and p53: did not have any effect
[16]; 25.03 μg/ml
  expression level of p53 (Y-5 clone): does not influence
  increased expression level of Bax compared with the control: 8.9 times
  increased expression level of p53 (DO-7 clone) compared with the control: 9.5 times
[16]; concentration not given
  expression of anti-apoptotic protein Bcl-2: does not have any effect
[17]
  glucose concentration compared to the control group: drop
  increase of insulin producing pancreatic islets area: more than 100%
[18]; 16.69 μg/ml
  suppressed proliferation of MM-4 cells compared with the control: 22.2%
[18]; 25.03 μg/ml
  reduction in the number of live melanoma cells compared with the control: 49.2%
[18]; MM-4 cells
  IC20: 16.69 mg/L
  IC50: 25.03 mg/L
[19]; AD models
  cognitive function: significantly improved
[19]; AD rats treated for 10 days
  body weight, water and feed intake: restored
[19]; Aβ1-40-induced AD
  neuroinflammation: almost complete resolution
[19]; Aβ1-40 AD rats, hippocampal dopaminergic neurons
  staining intensity of TH-immuno-positive cells: increased
[19]; [25]
  absolute number of circulating leukocytes: complete normalization
  neutrophilic lymphocytic coefficient (NLC): complete normalization

## ^64Zne EDDS
[20]
  MIC: 0.73 zinc mcg/ml
[7]
  MIC: 5.86 zinc mcg/ml
[8]; 37° C. 24 h, Table 4
  MBC: 0.73* mcg ^64Zne/ml
[8]; Table 6
  MBC: 0.7324 mcg zinc/ml
[12]; 37° C. 24 h, Table 4
  MBC: 375 mcg ^64Zne/ml
[12]; Table 6
  MBC: 375 mcg zinc/ml
[15]; 37° C. 24 h, Table 4
  MBC: 2.93* mcg ^64Zne/ml
[15]; Table 6
  MBC: 2.9296 mcg zinc/ml
[21]
  MIC: 0.18 zinc mcg/ml

## O=S(=O)([O-])[O-].[64Zn+2] [^64Zne sulfate]
[20]
  MIC: 0.366 zinc mcg/ml
[7]
  MIC: 46.875 zinc mcg/ml
[8]; 37° C. 24 h, Table 4
  MBC: 0.37* mcg ^64Zne/ml
[8]; Table 6
  MBC: 0.3662 mcg zinc/ml
[12]; 37° C. 24 h, Table 4
  MBC: 375 mcg ^64Zne/ml
[12]; Table 6
  MBC: 375 mcg zinc/ml
[15]; 37° C. 24 h, Table 4
  MBC: 1.46* mcg ^64Zne/ml
[15]; Table 6
  MBC: 1.4648 mcg zinc/ml
[21]
  MIC: 0.0916 zinc mcg/ml

## Zn64 EDDA
[7]
  bacteriostatic activity (in words): best results
[22]
  assessment of cytotoxicity and antiviral activity for anti-EBV infection: most promising

## NC(CCC(=O)[O-])C(=O)[O-].[64Zn+2] (stereo not drawn) [^64Zne glutamate]
[7]
  bacteriostatic activity (in words): best results
[8]; 37° C. 24 h, Table 4
  MBC: 0.046* mcg ^64Zne/ml
[12]; 37° C. 24 h, Table 4
  MBC: >750 mcg ^64Zne/ml
[15]; 37° C. 24 h, Table 4
  MBC: 0.37* mcg ^64Zne/ml
[23]
  RNA and DNA synthesis: Inhibition

## O=C(O)CC(O)(CC(=O)O)C(=O)O [^64Zne citrate]
[22]
  assessment of cytotoxicity and antiviral activity for anti-EBV infection: most promising
[23]
  RNA and DNA synthesis: Inhibition

## O=S(=O)([O-])[O-].[Zn+2] [Natural zinc - sulfate, reference compound]
[20]
  MIC: 93.75 zinc mcg/ml
[7]
  MIC: 750 zinc mcg/ml
[8]; Table 6
  MBC: >750 mcg zinc/ml
[12]; Table 6
  MBC: >750 mcg zinc/ml
[15]; Table 6
  MBC: >750 mcg zinc/ml
[21]
  MIC: 187.5 zinc mcg/ml

Reference: patent publication US12233089B2, “Foods to promote better health and/or to maintain homeostasis and method of production thereof” (Vector Vitale IP LLC, priority 2021, dated 2025)
